The source of these data is ChEMBL document CHEMBL4138130, “Effect of mofezolac-galactose distance in conjugates targeting cyclooxygenase (COX)-1 and CNS GLUT-1 carrier” (Eur J Med Chem, 2017).

Active and inactive are the calls of the source. The rule behind the calls is not given here.

For data set [1], the target named is T1, Solute carrier family 2, facilitated glucose transporter member 1 (Homo sapiens, UniProt P11166).
T1 sequence (P11166 whole entry): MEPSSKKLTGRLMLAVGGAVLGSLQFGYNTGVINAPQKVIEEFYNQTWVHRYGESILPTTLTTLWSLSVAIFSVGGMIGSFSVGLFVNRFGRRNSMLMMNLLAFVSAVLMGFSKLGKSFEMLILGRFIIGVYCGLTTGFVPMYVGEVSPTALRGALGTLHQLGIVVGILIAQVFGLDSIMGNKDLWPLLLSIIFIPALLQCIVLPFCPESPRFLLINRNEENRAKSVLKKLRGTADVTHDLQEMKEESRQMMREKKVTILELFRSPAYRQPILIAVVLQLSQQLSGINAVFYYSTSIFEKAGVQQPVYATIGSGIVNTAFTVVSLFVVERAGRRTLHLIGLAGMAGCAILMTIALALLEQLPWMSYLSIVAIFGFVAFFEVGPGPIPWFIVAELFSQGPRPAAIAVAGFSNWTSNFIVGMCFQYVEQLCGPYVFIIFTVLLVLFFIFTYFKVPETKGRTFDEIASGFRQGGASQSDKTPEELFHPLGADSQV
Description: Inhibition of GLUT1-mediated 2NBDG uptake in human Caco2 cells at 1 to 10 mM after 10 mins by Hoechst 33342 staining based fluorescence assay. The settings on record: caco-2, 10 min, 10000 µM. The format is cell-based.

Data set [2] has as its target T2, Prostaglandin G/H synthase 1 (Homo sapiens, UniProt P23219). Description: Inhibition of human COX1 assessed as reduction in appearance of oxidized TMPD using arachidonic acid as substrate by colorimetric assay.
The target in data set [3] is T3, Prostaglandin G/H synthase 2 (Homo sapiens) (UniProt P35354).
T3 sequence (whole entry): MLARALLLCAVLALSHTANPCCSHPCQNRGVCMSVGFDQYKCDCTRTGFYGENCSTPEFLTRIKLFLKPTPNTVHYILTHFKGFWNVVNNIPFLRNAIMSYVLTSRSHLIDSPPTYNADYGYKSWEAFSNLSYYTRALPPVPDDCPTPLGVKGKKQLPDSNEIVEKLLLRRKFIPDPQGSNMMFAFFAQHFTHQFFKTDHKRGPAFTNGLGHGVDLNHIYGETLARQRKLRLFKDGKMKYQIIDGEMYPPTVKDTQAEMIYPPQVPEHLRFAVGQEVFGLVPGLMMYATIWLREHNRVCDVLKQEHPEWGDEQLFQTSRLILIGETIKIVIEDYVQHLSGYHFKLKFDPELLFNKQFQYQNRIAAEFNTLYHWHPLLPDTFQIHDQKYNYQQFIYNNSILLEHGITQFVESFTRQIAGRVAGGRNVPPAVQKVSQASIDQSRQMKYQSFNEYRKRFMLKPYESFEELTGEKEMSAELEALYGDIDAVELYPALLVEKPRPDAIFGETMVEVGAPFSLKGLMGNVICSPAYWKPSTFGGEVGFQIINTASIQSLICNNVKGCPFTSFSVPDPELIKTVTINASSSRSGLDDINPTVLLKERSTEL
The experiment in a line: Inhibition of human COX2 assessed as reduction in appearance of oxidized TMPD at 50 uM using arachidonic acid as substrate by colorimetric assay relative to control.

Data set [4] deals with Caco-2. The experiment in a line: Cell cycle arrest in human Caco2 cells assessed as accumulation at G2/M-phase at 100 uM after 24 hrs by propidium iodide staining based flow cytometry. The format is functional. (In general: A flow cytometer gives signals particle by particle.)
A short description of data set [5]: Apparent permeability across apical to basolateral side in human Caco2 cells at 100 uM after 120 mins by UV-Visible spectroscopic method. The data set is classed as ADME, cell-based. The settings on record: Caco-2.
Data set [6] addresses T4, Prostaglandin G/H synthase 2 (Homo sapiens, UniProt P35354).
T4 sequence (P35354 whole entry): T3 sequence (whole entry)
Description: Inhibition of human COX2 assessed as reduction in appearance of oxidized TMPD using arachidonic acid as substrate by colorimetric assay.

In data set [7] the target is T1, Solute carrier family 2, facilitated glucose transporter member 1. The experiment in a line: Permeability across basolateral to apical side in human Caco2 cells assessed as GLUT1-mediated drug transport by transportability method. The format is ADME, cell-based. The settings on record: Caco-2. (Caco-2 monolayers are a common model of the intestinal barrier.)
In data set [8] the target is T2, Prostaglandin G/H synthase 1. Description: Inhibition of human COX1 assessed as reduction in appearance of oxidized TMPD at 50 uM using arachidonic acid as substrate by colorimetric assay relative to control.
The subject of data set [9] is Caco-2. The experiment in a line: Cell cycle arrest in human Caco2 cells assessed as accumulation at S-phase at 100 uM after 24 hrs by propidium iodide staining based flow cytometry. The format is functional.
In data set [10] the target is T1, Solute carrier family 2, facilitated glucose transporter member 1. The experiment in a line: Inhibition of GLUT1-mediated 2NBDG uptake in human Caco2 cells at 0.01 to 0.1 mM after 10 mins by Hoechst 33342 staining based fluorescence assay. The data set is classed as cell-based. The settings on record: caco-2, 10 min, 100 µM.
For data set [11], the target named is T5, GLUT1 (Solute carrier family 2, facilitated glucose transporter member 1) (Homo sapiens, UniProt P11166).
T5 sequence (P11166 whole entry): T1 sequence (P11166 whole entry)
The experiment in a line: Apparent permeability across basolateral to apical side in human Caco2 cells assessed as GLUT1-mediated drug transport at 100 uM after 120 mins by UV-Visible spectroscopic method. The format is ADME, cell-based. The settings on record: Caco-2.

Data set [12] deals with Caco-2. The experiment in a line: Cell cycle arrest in human Caco2 cells assessed as accumulation at G0/G1-phase at 100 uM after 24 hrs by propidium iodide staining based flow cytometry. The format is functional.
Data set [13] is filed under the species Homo sapiens. The experiment in a line: Selectivity index, ratio of IC50 for inhibition of human COX2 to IC50 for inhibition of human COX1.
In data set [14] the target is T6, Prostaglandin G/H synthase 1 (Mus musculus) (UniProt P22437).
T6 sequence (whole entry): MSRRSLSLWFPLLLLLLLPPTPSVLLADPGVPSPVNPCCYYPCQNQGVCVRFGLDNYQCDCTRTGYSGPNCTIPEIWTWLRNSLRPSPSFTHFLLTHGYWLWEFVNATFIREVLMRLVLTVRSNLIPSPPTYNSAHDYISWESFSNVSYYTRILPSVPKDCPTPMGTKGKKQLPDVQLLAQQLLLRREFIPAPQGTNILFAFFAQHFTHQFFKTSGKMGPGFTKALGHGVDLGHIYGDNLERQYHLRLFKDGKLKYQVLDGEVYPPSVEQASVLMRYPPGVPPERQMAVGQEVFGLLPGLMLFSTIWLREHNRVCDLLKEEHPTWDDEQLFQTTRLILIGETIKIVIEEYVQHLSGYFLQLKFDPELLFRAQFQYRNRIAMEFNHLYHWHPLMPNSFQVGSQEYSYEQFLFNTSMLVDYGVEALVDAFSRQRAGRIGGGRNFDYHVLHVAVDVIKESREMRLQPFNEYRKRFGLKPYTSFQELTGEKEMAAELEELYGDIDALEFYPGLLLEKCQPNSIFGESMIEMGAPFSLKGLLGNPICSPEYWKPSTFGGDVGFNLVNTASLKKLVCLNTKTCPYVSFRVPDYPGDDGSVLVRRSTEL
The experiment in a line: Inhibition of COX1 in mouse BV2 cells assessed as reduction in LPS-stimulated PGE2 release by measuring PGE2 level at 0.5 uM preincubated for 1 hr followed by LPS addition measured after 48 hrs by immunoassay (reference value: 0.7555 +/- 0.032 ng/ml). The data set is classed as cell-based.

Data set [15] in a line: Chemical stability in pH 8.8 simulated gut district fluid at 2.5 mg/ml after 60 mins by HPLC analysis. The data set is classed as ADME, physicochemical. The settings on record: buffer, pH 8.8, 1 h.
Data set [16] addresses T6, Prostaglandin G/H synthase 1 (Mus musculus). The experiment in a line: Inhibition of COX1 in mouse BV2 cells assessed as reduction in LPS-stimulated PGE2 release by measuring PGE2 level at 1 uM preincubated for 1 hr followed by LPS addition measured after 48 hrs by immunoassay (reference value: 0.7555 +/- 0.032 ng/ml). The format is cell-based.
For data set [17] the target is unchanged. The experiment in a line: Inhibition of COX1 in mouse BV2 cells assessed as reduction in LPS-stimulated PGE2 release by measuring PGE2 level at 10 uM preincubated for 1 hr followed by LPS addition measured after 48 hrs by immunoassay (reference value: 0.7555 +/- 0.032 ng/ml). The format is cell-based.
Data set [18] is described as follows: Chemical stability in pH 1 simulated gastric fluid at 2.5 mg/ml after 60 mins by HPLC analysis. The data set is classed as ADME, physicochemical. The settings on record: simulated gi fluid, pH 1, 1 h.
Data set [19] in a line: Retention time of the compound by HPLC analysis. The data set is classed as physicochemical.
The nature of data set [20]: Metabolic stability in rat liver S9 fraction after 30 mins in presence of NADP+ by HPLC analysis. The data set is classed as ADME, subcellular. The settings on record: s9, 0.5 h.
The nature of data set [21]: Chemical stability in pH 7.3 simulated blood fluid at 2.5 mg/ml after 60 mins by HPLC analysis. The settings on record: pH 7.3, 1 h. The format is ADME, physicochemical.

T2 sequence (P23219 whole entry): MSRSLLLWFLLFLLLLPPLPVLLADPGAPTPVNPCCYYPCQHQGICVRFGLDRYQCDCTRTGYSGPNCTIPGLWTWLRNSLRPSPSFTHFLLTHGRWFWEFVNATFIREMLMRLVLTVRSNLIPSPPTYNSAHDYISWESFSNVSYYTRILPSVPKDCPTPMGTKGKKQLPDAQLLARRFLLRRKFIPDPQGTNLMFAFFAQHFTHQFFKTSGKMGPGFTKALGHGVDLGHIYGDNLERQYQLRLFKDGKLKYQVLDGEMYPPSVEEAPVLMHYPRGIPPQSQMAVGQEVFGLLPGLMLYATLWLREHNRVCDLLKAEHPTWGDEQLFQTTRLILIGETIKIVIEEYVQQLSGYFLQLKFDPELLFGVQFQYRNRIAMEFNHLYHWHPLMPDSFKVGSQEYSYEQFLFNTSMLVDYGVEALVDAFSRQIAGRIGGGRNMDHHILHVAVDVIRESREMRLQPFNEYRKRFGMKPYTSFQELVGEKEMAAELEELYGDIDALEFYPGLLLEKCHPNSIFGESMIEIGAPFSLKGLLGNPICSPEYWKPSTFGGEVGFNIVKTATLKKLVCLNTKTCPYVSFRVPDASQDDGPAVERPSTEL

As for `OC[C@H]1OC(O)[C@H](O)[C@@H](O)[C@@H]1O` (some centres not stated) [DEXTROSE], the “inhibition (INH)” value in [1] is on record as “Active”.
Take `COc1ccc(-c2noc(CC(=O)NCCCCC(=O)OC[C@H]3OC(O)[C@H](O)[C@@H](O)[C@H]3O)c2-c2ccc(OC)cc2)cc1` (some centres not stated): the half-inhibitory concentration (IC50) in data set [2] and in data set [6] was above 50000 nM throughout. In addition, the values for the inhibition in data set [3] and in data set [8] were 24% and 38%, respectively. The result in [4] and in [9] was Active. Moreover, the Papp A→B – broadly, how fast a substance crosses the layer from the apical side – at 2 h, 100 µM in data set [5] worked out at 23.3 ×10⁻⁶ cm/s. Also, the permeability entry in data set [7] is listed as “Permeable”. Also, the “inhibition (INH)” value in data set [10] is given as “Active”. Besides, the Papp B→A (usually the apparent permeability from the basolateral to the apical side of a cell layer) at 2 h, 100 µM in [11] amounted to 113 ×10⁻⁶ cm/s.
In the case of `COc1ccc(-c2noc(CC(=O)NCCCCCCCCCCC(=O)OC[C@H]3OC(O)[C@H](O)[C@@H](O)[C@H]3O)c2-c2ccc(OC)cc2)cc1` (some centres not stated), the IC50 (usually the concentration that inhibits the measured activity by half) in [2] amounted to 400 nM; in data set [6], 270 nM. Besides, the values for the inhibition in [3] and in data set [8] were 64% and 90%, respectively. The result in data set [12], in data set [4] and in data set [9] was inactive. The apparent permeability from apical to basolateral (Papp A→B) at 2 h, 100 µM in data set [5] is 16.9 ×10⁻⁶ cm/s. Besides, the permeability entry in [7] is on record as “Permeable”. Further, the “inhibition (INH)” value in data set [10] is recorded as “Active”. Further, the Papp B→A at 2 h, 100 µM in [11] is 58.7 ×10⁻⁶ cm/s. The Ratio IC50 in data set [13] came out at 0.67.
`COc1ccc(-c2noc(CC(=O)O)c2-c2ccc(OC)cc2)cc1` [MOFEZOLAC]: the inhibition (commonly how much of the control response was suppressed) in [3] amounted to 38%; in data set [8], 100%. The result in data set [12], in data set [4] and in [9] was inactive. Also, the Papp A→B at 2 h, 100 µM in [5] was found to be 41.4 ×10⁻⁶ cm/s. For the same molecule, in data set [7], the permeability result is reported as “Permeable”. For the same molecule, in data set [14], the Activity was determined as 0.0328 ng/mL. Besides, in [11], the Papp B→A at 2 h, 100 µM is 46.1 ×10⁻⁶ cm/s.
Turning to `COc1ccc(-c2noc(CC(=O)OC[C@H]3O[C@@H](O)[C@H](O)[C@@H](O)[C@H]3O)c2-c2ccc(OC)cc2)cc1`, the IC50 turned out to be 270 nM in [2] and 3100 nM in data set [6]. Besides, the inhibition in data set [3] was determined as 87%; in data set [8], 100%. For the same molecule, the outcome in data set [12], in [4] and in data set [9] was inactive. In addition, the Stability result in data set [15], in data set [18], in [20] and in [21] was “Stable” each time. Moreover, the Activity in data set [16] was 0.0178 ng/mL; in [17], 0.0103 ng/mL; in data set [14], 0.0086 ng/mL. Further, the apparent permeability from apical to basolateral (Papp A→B) at 2 h, 100 µM in data set [5] came to 38 ×10⁻⁶ cm/s. Moreover, the permeability entry in data set [7] is “Permeable”. Also, the Retention_time in [19] turned out to be 7.504 min. Also, the “inhibition (INH)” value in data set [10] was “Active”. Further, the Papp B→A at 2 h, 100 µM in [11] was 87.5 ×10⁻⁶ cm/s. Also, the Ratio IC50 in data set [13] amounted to 11.5.
